{
  "source": "ChEMBL document CHEMBL5465560",
  "about": "“Selectivity Literature for EUbOPEN Chemogenomic Library” (2024)",
  "key": {"[1]": {"target": "Phosphatidylinositol 3-kinase catalytic subunit type 3 (Homo sapiens, UniProt Q8NEB9)", "sequence (Q8NEB9 whole entry)": "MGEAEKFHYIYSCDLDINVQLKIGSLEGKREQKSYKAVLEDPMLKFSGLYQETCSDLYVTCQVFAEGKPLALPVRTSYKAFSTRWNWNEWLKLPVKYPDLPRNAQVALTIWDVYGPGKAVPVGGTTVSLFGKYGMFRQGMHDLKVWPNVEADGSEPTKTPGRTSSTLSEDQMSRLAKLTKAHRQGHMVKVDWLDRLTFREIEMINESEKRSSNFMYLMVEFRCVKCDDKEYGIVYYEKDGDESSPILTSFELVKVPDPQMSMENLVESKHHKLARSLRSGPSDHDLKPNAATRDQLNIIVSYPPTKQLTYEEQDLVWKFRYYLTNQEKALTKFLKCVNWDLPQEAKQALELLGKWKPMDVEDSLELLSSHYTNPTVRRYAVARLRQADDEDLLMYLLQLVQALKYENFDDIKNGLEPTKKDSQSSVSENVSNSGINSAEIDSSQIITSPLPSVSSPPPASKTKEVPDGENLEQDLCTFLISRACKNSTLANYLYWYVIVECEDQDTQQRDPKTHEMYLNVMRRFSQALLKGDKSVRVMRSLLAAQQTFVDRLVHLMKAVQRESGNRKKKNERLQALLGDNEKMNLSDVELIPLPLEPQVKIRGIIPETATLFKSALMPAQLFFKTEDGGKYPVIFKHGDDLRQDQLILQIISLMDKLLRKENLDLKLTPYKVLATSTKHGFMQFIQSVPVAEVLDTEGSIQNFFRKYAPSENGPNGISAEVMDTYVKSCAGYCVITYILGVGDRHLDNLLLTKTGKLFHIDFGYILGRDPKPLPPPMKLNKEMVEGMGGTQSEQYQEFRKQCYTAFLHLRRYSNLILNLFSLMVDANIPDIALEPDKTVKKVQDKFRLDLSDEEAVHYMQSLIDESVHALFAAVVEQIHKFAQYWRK", "experiment": "Selectivity interaction (Kinase panel (KiNativ target engagement assay in Jurkat cells)) EUB0001635a PIK3C3", "format": "cell-based", "details": "Selectivity number of off-targets 0.0, Selectivity number of targets 233.0, Source Knowledge https://www.sciencedirect.com/science/article/pii/S2451945619300674?via%3Dihub, at 1 µM"}, "[2]": {"target": "Serine/threonine-protein kinase MARK1 (Homo sapiens) (UniProt Q9P0L2)", "sequence (Q9P0L2 whole entry, looked up)": "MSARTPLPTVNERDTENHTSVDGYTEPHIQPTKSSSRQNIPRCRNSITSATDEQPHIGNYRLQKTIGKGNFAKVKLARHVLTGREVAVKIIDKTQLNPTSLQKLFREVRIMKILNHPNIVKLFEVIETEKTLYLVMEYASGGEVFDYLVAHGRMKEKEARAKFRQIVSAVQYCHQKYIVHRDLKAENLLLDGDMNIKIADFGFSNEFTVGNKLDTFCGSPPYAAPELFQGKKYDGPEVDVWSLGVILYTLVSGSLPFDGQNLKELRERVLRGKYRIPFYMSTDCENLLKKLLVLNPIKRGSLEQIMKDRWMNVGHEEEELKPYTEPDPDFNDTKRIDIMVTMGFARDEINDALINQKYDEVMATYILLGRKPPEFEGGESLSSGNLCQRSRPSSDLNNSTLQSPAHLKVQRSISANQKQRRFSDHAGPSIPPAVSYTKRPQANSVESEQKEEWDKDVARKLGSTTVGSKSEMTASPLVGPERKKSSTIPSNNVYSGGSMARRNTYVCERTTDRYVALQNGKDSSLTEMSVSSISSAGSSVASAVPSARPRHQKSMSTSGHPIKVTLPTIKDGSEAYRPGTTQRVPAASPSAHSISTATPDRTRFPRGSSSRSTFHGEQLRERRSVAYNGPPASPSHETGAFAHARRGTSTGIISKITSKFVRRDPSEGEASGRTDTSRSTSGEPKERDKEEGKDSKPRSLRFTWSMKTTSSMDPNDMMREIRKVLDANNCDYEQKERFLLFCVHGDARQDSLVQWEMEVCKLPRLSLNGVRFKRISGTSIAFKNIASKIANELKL", "experiment": "Selectivity interaction (KinomeScan (DiscoverX)) EUB0000045b MARK1"}, "[3]": {"target": "T1, Ephrin type-B receptor 2 (Homo sapiens) (UniProt P29323)", "T1 sequence (whole entry)": "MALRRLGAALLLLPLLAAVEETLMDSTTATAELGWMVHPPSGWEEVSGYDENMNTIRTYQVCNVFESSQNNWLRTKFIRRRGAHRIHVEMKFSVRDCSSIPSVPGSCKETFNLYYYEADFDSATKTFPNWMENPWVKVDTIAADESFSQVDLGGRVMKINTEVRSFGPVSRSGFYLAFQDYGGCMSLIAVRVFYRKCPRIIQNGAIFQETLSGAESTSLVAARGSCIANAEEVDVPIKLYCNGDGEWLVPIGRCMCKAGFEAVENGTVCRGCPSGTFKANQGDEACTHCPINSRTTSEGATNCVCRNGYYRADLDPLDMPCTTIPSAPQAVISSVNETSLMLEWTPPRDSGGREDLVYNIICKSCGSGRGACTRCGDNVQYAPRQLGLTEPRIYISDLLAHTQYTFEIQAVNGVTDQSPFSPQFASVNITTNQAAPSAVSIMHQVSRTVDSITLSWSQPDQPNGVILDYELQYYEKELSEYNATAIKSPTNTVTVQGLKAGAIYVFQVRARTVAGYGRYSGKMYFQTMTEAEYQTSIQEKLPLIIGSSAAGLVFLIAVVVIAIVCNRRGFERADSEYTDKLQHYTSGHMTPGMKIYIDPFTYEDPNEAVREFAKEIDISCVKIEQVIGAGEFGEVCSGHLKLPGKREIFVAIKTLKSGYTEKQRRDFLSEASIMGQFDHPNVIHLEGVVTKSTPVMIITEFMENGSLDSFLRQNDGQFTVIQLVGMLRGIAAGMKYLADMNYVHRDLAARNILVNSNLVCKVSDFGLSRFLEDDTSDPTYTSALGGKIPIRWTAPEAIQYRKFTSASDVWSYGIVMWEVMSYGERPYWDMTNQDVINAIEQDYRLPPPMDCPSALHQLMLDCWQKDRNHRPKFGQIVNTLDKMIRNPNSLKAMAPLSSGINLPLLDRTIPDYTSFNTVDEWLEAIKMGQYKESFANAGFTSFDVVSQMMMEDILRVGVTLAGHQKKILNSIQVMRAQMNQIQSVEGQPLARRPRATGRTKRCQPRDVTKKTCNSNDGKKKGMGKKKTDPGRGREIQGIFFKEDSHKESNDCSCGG", "experiment": "Selectivity interaction (Kinase screening (Nanosyn)) EUB0000604a EPHB2"}, "[4]": {"target": "Tyrosine-protein kinase Yes (Homo sapiens) (UniProt P07947)", "sequence (P07947 2-543 limits assumed)": "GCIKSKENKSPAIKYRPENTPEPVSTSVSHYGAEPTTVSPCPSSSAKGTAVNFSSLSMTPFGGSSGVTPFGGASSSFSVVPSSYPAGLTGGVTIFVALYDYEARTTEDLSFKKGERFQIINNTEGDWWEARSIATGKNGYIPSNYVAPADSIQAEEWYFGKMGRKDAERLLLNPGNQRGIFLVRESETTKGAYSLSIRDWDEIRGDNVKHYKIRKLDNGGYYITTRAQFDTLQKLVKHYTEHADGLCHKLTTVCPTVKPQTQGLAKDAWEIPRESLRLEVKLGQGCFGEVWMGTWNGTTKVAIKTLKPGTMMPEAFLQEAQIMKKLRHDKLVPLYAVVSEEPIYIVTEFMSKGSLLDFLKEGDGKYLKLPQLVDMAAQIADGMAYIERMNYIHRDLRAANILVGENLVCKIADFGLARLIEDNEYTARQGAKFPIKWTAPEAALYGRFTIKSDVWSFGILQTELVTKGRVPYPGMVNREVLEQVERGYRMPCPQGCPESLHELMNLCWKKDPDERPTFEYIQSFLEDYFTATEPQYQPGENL", "experiment": "Selectivity interaction (Kinase panel (Invitrogen)) EUB0000639a YES1", "details": "at 200 nM"}, "[5]": {"target": "Serine/threonine-protein kinase SMG1 (Homo sapiens) (UniProt Q96Q15)", "experiment": "Selectivity interaction (ActivX KiNativ screen (kinase selectivity in THP-1 cell lysates)) EUB0000639a SMG1", "format": "subcellular", "details": "lysate, at 1 µM"}, "[6]": {"target": "Calcium/calmodulin-dependent protein kinase type II subunit delta (Homo sapiens) (UniProt Q13557)", "sequence (Q13557 whole entry)": "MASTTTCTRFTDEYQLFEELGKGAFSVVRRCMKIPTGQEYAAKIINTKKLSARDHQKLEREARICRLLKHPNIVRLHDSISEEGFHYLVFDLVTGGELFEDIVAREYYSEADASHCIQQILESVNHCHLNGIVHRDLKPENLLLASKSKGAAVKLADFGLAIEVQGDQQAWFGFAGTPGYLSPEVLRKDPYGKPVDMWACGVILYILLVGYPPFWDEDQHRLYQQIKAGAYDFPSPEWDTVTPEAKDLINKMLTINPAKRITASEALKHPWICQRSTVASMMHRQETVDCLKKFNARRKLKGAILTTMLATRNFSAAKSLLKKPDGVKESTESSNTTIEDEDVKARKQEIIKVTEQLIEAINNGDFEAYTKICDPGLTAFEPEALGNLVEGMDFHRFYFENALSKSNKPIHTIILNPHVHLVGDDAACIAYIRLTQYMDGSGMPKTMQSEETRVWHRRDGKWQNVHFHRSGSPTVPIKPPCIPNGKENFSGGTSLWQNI", "experiment": "Selectivity interaction (ActivX KiNativ screen (kinase selectivity in THP-1 cell lysates)) EUB0000639a CAMK2D", "format": "subcellular", "details": "lysate, at 5 µM"}, "[7]": {"system": "Hepatocyte growth factor receptor (Homo sapiens), P08581 [M1250T]", "experiment": "(§1) Selectivity interaction (KinomeScan (DiscoverX)) EUB0000655a MET", "details": "at 10 µM"}, "[8]": {"target": "Hepatocyte growth factor receptor (Homo sapiens, UniProt P08581)", "experiment": "as §1", "details": "at 10 µM"}, "[9]": {"system": "Hepatocyte growth factor receptor (Homo sapiens), P08581 [Y1235D]", "sequence (P08581 whole entry Y1235D)": "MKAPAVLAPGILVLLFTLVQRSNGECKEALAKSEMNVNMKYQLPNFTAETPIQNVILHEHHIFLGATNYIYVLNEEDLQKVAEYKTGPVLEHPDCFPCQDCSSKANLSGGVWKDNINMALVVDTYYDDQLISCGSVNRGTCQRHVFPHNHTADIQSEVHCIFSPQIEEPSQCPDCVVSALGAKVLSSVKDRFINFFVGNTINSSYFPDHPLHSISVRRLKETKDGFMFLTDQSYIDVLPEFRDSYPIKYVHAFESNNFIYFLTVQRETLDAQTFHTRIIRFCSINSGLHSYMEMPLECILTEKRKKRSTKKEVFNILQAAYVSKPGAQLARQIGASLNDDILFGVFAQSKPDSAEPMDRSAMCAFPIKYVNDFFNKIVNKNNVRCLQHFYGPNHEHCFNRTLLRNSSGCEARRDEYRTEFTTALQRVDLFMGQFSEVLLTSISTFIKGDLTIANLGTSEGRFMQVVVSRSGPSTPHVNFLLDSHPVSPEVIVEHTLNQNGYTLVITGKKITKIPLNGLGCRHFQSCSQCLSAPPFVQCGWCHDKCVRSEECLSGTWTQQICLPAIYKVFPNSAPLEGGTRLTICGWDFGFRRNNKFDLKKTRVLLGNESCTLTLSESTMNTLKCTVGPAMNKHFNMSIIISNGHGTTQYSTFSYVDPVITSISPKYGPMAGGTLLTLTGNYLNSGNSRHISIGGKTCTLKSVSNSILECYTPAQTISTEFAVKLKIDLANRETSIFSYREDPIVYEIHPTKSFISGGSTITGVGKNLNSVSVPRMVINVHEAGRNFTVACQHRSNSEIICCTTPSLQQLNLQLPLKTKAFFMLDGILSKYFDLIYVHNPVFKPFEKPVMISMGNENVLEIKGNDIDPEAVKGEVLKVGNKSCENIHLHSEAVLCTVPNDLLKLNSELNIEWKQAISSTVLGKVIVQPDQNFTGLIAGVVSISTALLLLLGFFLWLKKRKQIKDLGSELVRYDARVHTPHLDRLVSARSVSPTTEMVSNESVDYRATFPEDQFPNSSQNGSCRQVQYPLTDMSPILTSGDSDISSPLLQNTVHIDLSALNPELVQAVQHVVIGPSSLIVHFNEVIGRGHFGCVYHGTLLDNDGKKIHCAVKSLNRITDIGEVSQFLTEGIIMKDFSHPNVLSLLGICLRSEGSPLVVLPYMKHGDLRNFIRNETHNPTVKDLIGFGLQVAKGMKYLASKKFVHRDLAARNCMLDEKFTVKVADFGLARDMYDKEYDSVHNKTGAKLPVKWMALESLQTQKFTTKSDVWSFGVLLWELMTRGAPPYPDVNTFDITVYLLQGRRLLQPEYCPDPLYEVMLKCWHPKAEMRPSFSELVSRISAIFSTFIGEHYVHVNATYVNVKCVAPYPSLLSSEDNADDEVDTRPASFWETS", "experiment": "as §1", "details": "at 10 µM"}, "[10]": {"target": "Serine/threonine-protein kinase Nek6 (Homo sapiens) (UniProt Q9HC98)", "sequence (Q9HC98 whole entry)": "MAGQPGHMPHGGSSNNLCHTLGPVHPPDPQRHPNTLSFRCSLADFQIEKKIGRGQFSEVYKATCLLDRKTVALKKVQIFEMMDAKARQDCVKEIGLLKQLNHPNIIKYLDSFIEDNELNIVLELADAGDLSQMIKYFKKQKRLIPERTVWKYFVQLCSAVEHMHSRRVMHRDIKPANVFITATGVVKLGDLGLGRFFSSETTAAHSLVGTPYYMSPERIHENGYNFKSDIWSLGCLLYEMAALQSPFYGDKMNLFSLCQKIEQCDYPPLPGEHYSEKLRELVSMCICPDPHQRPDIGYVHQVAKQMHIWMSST", "details": "at 10 µM"}, "[11]": {"target": "T2, Serine/threonine-protein kinase ULK1 (Homo sapiens) (UniProt O75385)", "T2 sequence (whole entry)": "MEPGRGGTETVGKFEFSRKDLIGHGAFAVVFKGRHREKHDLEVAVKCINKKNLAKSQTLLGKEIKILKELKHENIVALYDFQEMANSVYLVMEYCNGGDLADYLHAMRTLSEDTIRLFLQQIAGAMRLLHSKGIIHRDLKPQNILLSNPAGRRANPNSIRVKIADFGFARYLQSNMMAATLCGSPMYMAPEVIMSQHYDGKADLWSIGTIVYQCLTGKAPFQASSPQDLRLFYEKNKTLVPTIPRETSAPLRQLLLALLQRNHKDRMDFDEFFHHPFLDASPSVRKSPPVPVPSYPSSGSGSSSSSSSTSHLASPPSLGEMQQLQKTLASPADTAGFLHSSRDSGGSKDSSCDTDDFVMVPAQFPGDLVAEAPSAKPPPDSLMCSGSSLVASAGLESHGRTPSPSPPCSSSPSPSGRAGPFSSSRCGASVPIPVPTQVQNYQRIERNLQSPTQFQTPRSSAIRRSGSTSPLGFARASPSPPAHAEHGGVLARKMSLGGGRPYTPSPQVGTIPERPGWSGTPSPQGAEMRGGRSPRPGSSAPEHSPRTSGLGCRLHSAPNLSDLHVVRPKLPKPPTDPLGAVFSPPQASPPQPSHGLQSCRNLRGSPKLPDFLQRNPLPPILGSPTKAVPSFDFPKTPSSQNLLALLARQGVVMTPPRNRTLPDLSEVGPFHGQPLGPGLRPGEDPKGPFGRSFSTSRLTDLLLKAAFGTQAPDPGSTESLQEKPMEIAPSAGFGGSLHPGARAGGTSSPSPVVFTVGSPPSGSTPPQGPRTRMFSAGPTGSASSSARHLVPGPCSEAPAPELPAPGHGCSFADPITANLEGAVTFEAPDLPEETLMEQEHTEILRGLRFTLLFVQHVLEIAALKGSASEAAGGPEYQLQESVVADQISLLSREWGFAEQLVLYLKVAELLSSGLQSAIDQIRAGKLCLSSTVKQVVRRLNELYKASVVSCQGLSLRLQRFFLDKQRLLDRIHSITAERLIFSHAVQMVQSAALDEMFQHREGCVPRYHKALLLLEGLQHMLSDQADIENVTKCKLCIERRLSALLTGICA", "experiment": "Selectivity interaction (KinomeScan (DiscoverX)) EUB0000092b ULK1", "details": "at 10 µM"}},
  "data": [
    {"smiles": "C=CC(=O)Nc1ccc(C(=O)Nc2[nH]nc3c2CN(C(=O)N[C@H](CN(C)C)c2ccccc2)C3(C)C)cc1", "values": [
      {"measurement": "% of engagement", "setting": "[1]", "result": -5.1, "unit": "%"}
    ]},
    {"smiles": "C=CC(=O)Nc1cc(-n2c(=O)ccc3cnc4ccc(-c5ccc(NS(C)(=O)=O)cc5)cc4c32)ccc1C", "values": [
      {"measurement": "% of control", "setting": "[2]; at 1 µM", "result": 97, "unit": "%"},
      {"measurement": "% of control", "setting": "[2]; at 10 µM", "result": 89, "unit": "%"}
    ]},
    {"smiles": "Cc1cnc(Nc2ccc(F)cc2Cl)nc1-c1c[nH]c(C(=O)N[C@H](CO)c2cccc(Cl)c2)c1", "values": [
      {"measurement": "% of inhibition", "setting": "[3]", "result": 0, "unit": "%"}
    ]},
    {"smiles": "CC[C@@H]1[C@H](F)C(=O)N[C@@H]1COc1nccc2cc(C(N)=O)c(OC)cc12", "note": "[ZIMLOVISERTIB]", "values": [
      {"measurement": "% of inhibition", "setting": "[4]", "result": 3.51, "unit": "%"},
      {"measurement": "% of inhibition", "setting": "[5]", "result": 4.9, "unit": "%"},
      {"measurement": "% of inhibition", "setting": "[6]", "result": 56.2, "unit": "%"}
    ]},
    {"smiles": "CN(C)CCOc1ccc(-c2nc(-c3ccncc3)c(-c3ccc4c(c3)CC/C4=N\\O)[nH]2)cc1", "values": [
      {"measurement": "% of control", "setting": "[7]", "result": 64, "unit": "%"},
      {"measurement": "% of control", "setting": "[8]", "result": 50, "unit": "%"},
      {"measurement": "% of control", "setting": "[9]", "result": 64, "unit": "%"}
    ]},
    {"smiles": "CCN(CC)CCCCNc1ncc2cc(-c3cc(OC)cc(OC)c3)c(NC(=O)NC(C)(C)C)nc2n1", "values": [
      {"measurement": "% of control", "setting": "[10]", "result": 100, "unit": "%"}
    ]},
    {"smiles": "CCC(=O)N1CCN(c2ccc(-n3c(=O)ccc4cnc5ccc(-c6cnc7ccccc7c6)cc5c43)cc2C(F)(F)F)CC1", "values": [
      {"measurement": "% of control", "setting": "[11]", "result": 100, "unit": "%"}
    ]}
  ]
}
